Data taken from US5914328A, “Heterocyclic ether compounds useful in controlling neurotransmitter release” (Abbott Laboratories, priority 1995, dated 1999).
Counter-ions that a name gives are not always drawn. Like-named read-outs stand apart in the source and are kept apart here.

Tests used:
[1] = tested on: nAChR evoked release of [3H]-dopamine; test: Striatal dopamine release ([3H]-dopamine, superfused rat striatal slices); assay type: cell-based; settings: standard 100 nM (-)-nicotine = 1.0
Protocol: The protocol for this procedure follows below.
A. Protocol for Determination of Striatal Dopamine Release.
nAChR evoked release of [ring-2,5,6-^3 H]-dopamine (24.4 Ci/mmol) was measured in superfused rat striatal slices. Striata were dissected from two male Sprague-Dawley rats per experiment and sliced 0.35×0.25 mm by a McIlwain Tissue Chopper (Brinkman Instrument Co., Westbury, N.Y.). After two washes with Krebs-HEPES buffer (137 mM NaCl, 4.7 mM KCl, 1 mM MgSO4, 2.5 mM CaCl2, 1.25 mM NaH2 PO4, 10 mM glucose, 15 mM HEPES-NaOH, pH 7.4, containing 10 μM pargyline and 10 μM ascorbic acid), slices were preincubated for 10 minutes at […] under 95%/5% O2 /CO2. After replacing the buffer, slices were labeled with […] [^3 H]-dopamine for 25 min in Krebs-HEPES at […] Aliquots of slices were placed in 18 superfusion chambers of a Brandel SP2000 superfusion apparatus (Brandel, Gaithersberg, Md.). Following 47 minutes of washout, slices were exposed to agonist at various concentrations for4 minutes. Antagonists or inhibitors, when present were introduced 4 minutes prior to and during agonist exposure. Collected fractions were counted in 5 mL of Ecolume. Tissue was recovered from superfusion chambers, solubilized with 1 mL of Solvable™ (DuPont-NEN) and counted in 15 mL of Ecolume. Fractional release of [^3 H]-dopamine was calculated from radioactivity above baseline as a fraction of total radioactivity.

[2] = molecular target: neuronal nicotinic cholinergic channel receptor; test: Binding of [3H]-cytisine to neuronal nicotinic receptors, whole rat brain synaptic membranes
Protocol: B. Protocol For Determination of Nicotinic Cholinergic Channel Receptor Binding Potencies of Ligands
Binding of [^3 H]-cytisine ([^3 H]-CYT) to nicotinic receptors was accomplished using crude synaptic membrane preparations from whole rat brain (Pabreza et al., Molecular Pharmacol., 1990, 39:9). Washed membranes were stored at -80° C. prior to use. Frozen aliquots were slowly thawed and resuspended in 20 volumes of buffer (containing: 120 mM NaCl, 5 mM KCl, 2 mM MgCl2, 2 mM CaCl2 and 50 mM Tris-Cl, pH 7.4 @4° C.). After centrifuging at 20,000×g for 15 minutes, the pellets were resuspended in 30 volumes of buffer. Homogenate (containing […]) was added to triplicate tubes containing concentrations of test compound and [^3 H]-CYT (1.25 nM) in a final volume of 500 μL. Samples were incubated for 60 minutes at 4° C., then rapidly filtered through Whatman GF/B filters presoaked in 0.5% polyethylimine using 3×4 mL of ice-cold buffer. The filters are counted in 4 mL of Ecolume® (ICN). […] Alternately, data were expressed as a percentage of the total specific binding.

[3] = tested on: cholinergic ligand-gated channels; test: Cholinergic channel activation in PC12 cells, whole-cell patch-clamp; assay type: cell-based; settings: whole-cell patch-clamp current
From the text: D. Protocols for the Determination of Cholinergic Channel Activation in PC12 Cells.
The cholinergic channel activator properties of Example 9 were investigated in PC12 cells using the whole-cell patch-clamp approach to measure current flow through ligand-gated membrane channels.

[4] = example concentration 10 μM (*)
[5] = read-out: Receptor Binding Ki (Table 2)
[6] = read-out: Receptor Binding Ki (Table 1)
[7] = example concentration 1 μM (**)
[8] = example concentration 0.1 μ (***)

Compound: CN1CCC[C@@H]1COc1cccnc1.Cl [Example 1, 3-((1-methyl-2-(R)-pyrrolidinyl)methoxy)pyridine hydrochloride]
- Dopamine Release relative to Nicotine [1, 4]: 0.08

Compound: CN1CCC[C@H]1COc1cccnc1.O=C(O)/C=C/C(=O)O [Example 4, 3-((1-methyl-2-(S)-pyrrolidinyl)methoxy)pyridine fumarate]
- Dopamine Release relative to Nicotine [1, 4]: 1.0

Compound: CC(Oc1cccnc1)[C@@H]1CCCN1C (stereo partly drawn) [Example 6, 3-(a-methyl-(1-methyl-2-(S)-pyrrolidinyl)methoxy)pyridine hydrochloride]
- Ki [2, 5]: 6.7 nM

Compound: c1cnc(OC[C@@H]2CCN2)cn1 [Example 7]
- Ki ([2]; [3H]-cytisine 1.25 nM, rat brain membranes, 4° C., Table 2, read-out: Receptor Binding Ki (Table 2)): 0.44 nM

Compound: CN1CC[C@H]1COc1cnccn1.Cl.Cl [Example 8, 2-((1-methyl-2-(S)-azetidinyl)methoxy)pyrazine dihydrochloride]
- Dopamine Release relative to Nicotine [1, 4]: 0.55

Compound: Cl.Cl.c1cncc(OC[C@@H]2CCN2)c1 [Example 9, 3-(2-(S)-azetidinylmethoxy)pyridine dihydrochloride]
- Dopamine Release relative to Nicotine [1, 4]: 1.0
- cholinergic channel activator properties (in words) [3]: clear agonist activity

Compound: CN1CC[C@H]1COc1cccnc1 [Example 10, 3-((1-methyl-2-(S)-azetidinyl)methoxypyridinedihydrochloride]
- Dopamine Release relative to Nicotine [1, 4]: 1.0
- Ki [2, 6]: 0.25 nM

Compound: c1cncc(OC[C@@H]2CCCN2)c1 [Example 14, 3-(2-(S)-pyrrolidinylmethoxypyridine fumarate]
- Dopamine Release relative to Nicotine [1, 7]: 1.0
- Ki [2, 6]: 0.14 nM

Compound: CN1CCC[C@H]1COc1cncc(Cl)c1 [Example 16, 5chloro-3-((1-methyl-2-(S)-pyrrolidinyl)methoxypyridinedihydrochloride]
- Dopamine Release relative to Nicotine [1, 7]: 1.0

Compound: Cc1ccc(OC[C@@H]2CCCN2)cn1.Cl.Cl [Example 18, 6-methyl-3-(2-(S)-pyrrolidinylmethoxy)pyridine dihydrochloride]
- Dopamine Release relative to Nicotine [1, 8]: 1.0

Compound: Cc1ccc(OC[C@@H]2CCCN2C)cn1.Cl.Cl [Example 19, 6methyl-3-((1-methyl-2-(S)-pyrrolidinyl)methoxy)pyridine dihydrochloride]
- Dopamine Release relative to Nicotine [1, 8]: 0.78
- Ki [2, 6]: 1.47 nM

Compound: C[C@@H]1C[C@@H](COc2cccnc2)N(C)C1 [Example 24, 3-((trans-1,4dimethyl-2(S)-pyrrolidinone)methoxy)pyridine dihydrochloride]
- Ki [2, 5]: 4.2 nM

Compound: CN1CCCCC1COc1cccnc1 (stereo not shown) [Example 26, 3-((1-methyl-2-piperidinyl)methoxy)pyridine oxalate salt]
- Ki [2, 5]: 76 nM

Compound: Cc1ncccc1OC[C@@H]1CCN1 [Example 29, 2-methyl-3-(2-(S)-azetidinylmethoxy)pyridine dihydrochloride]
- Ki [2, 5]: 1.3 nM

Compound: CN1CCC[C@H]1COc1cnc2ccccc2c1.Cl [Example 31, 3-(1-methyl-2-(S)-pyrrolidinylmethoxy)quinoline hydrochloride]
- Dopamine Release relative to Nicotine [1, 4]: 0.15

Compound: Cl.Cl.Clc1cncc(OC[C@H]2CCCN2)c1 [Example 33, 5-chloro-3-(2-(R)-pyrrolidinylmethoxy)pyridine dihydrochloride]
- Dopamine Release relative to Nicotine [1, 7]: 0.62

Compound: Cc1ccc(OC[C@H]2CCCN2C)cn1 [Example 36, 6-methyl-3-((1-methyl-2-(R)-pyrrolidinyl)methoxy)pyridine dihydrochloride]
- Ki [2, 5]: 26 nM

Compound: Cc1ccc(OCC2CCCN2)cn1 (stereo not shown) [Example 37, 6methyl-3-(2-(R-pyrrolidinylmethoxy)pyridinedihydrochloride]
- Dopamine Release relative to Nicotine [1, 4]: 0.8
- Ki [2, 6]: 0.5 nM

Compound: CCN1CCC[C@H]1COc1cccnc1.Cl.Cl [Example 38, 3-((1-ethyl-2(S)-pyrrolidinyl)methoxy)pyridine dihydrochloride]
- Dopamine Release relative to Nicotine [1, 4]: 0.6

Compound: Cc1ccncc1OC[C@@H]1CCCN1C.Cl.Cl [Example 46, 4-methyl-3-((1-methyl-2-(S)-pyrrolidinyl)methoxy)pyridine dihydrochloride]
- Dopamine Release relative to Nicotine [1, 4]: 0.85

Compound: Clc1ccc(OC[C@@H]2CCN2)cn1 [Example 52, 3-(2-(S)-azetidinylmethoxy)-6-chloropyridine dihydrochloride]
- Dopamine Release relative to Nicotine [1, 4]: 1.0

Compound: Cc1ccc(OC[C@@H]2CCN2C)cn1.Cl.Cl [Example 59, 3-((1-methyl-2-(S)-azetidinyl)methoxy)-6-methylpyridine dihydrochloride]
- Dopamine Release relative to Nicotine [1, 4]: 0.7

Compound: CN1CCC[C@H]1CCOc1cccnc1.Cl.Cl [Example 103, 3-(2-(1-methyl-2-(S)-pyrrolidinyl)ethoxy)pyridine dihydrochloride]
- Dopamine Release relative to Nicotine [1, 4]: 0.3
